Experimental data reported in PubChem BioAssay (NCI).
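A five-concentration, 48-hour dose response in 96-well plates underlies each endpoint, interpolated linearly between surrounding concentrations. At the TGI there is no net growth.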

What was measured:
Assay in all cases: growth of human tumour cells (NCI), 48 h
SK-MEL-28 melanoma = test system: SK-MEL-28 melanoma
OVCAR-3 ovarian = test system: OVCAR-3 ovarian
KM12 colon = test system: KM12 colon
HCC-2998 colon = test system: HCC-2998 colon
OVCAR-8 ovarian = test system: OVCAR-8 ovarian
DMS 114 small cell lung = test system: DMS 114 small cell lung
COLO 205 colon = test system: COLO 205 colon
LXFL 529 NSCLC = test system: LXFL 529 NSCLC
SF-295 CNS = test system: SF-295 CNS
TK-10 renal = test system: TK-10 renal
UACC-257 melanoma = test system: UACC-257 melanoma
HOP-62 NSCLC = test system: HOP-62 NSCLC
UO-31 renal = test system: UO-31 renal
UACC-62 melanoma = test system: UACC-62 melanoma
CAKI-1 renal = test system: CAKI-1 renal
NCI-H522 lung = test system: NCI-H522 lung
MALME-3M melanoma = test system: MALME-3M melanoma
SNB-75 CNS = test system: SNB-75 CNS
OVCAR-4 ovarian = test system: OVCAR-4 ovarian
A498 renal = test system: A498 renal
DLD-1 colon = test system: DLD-1 colon
A549 NSCLC = test system: A549 NSCLC
786-0 renal = test system: 786-0 renal
SNB-78 CNS = test system: SNB-78 CNS
IGROV1 ovarian = test system: IGROV1 ovarian
OVCAR-5 ovarian = test system: OVCAR-5 ovarian
M19-MEL melanoma = test system: M19-MEL melanoma
CCRF-CEM leukemia = test system: CCRF-CEM leukemia
SW-620 colon = test system: SW-620 colon
KM20L2 colon = test system: KM20L2 colon
SK-MEL-2 melanoma = test system: SK-MEL-2 melanoma
NCI-H460 lung = test system: NCI-H460 lung
U251 CNS = test system: U251 CNS
XF 498 CNS = test system: XF 498 CNS
HT29 colon = test system: HT29 colon
SK-OV-3 ovarian = test system: SK-OV-3 ovarian
SK-MEL-5 melanoma = test system: SK-MEL-5 melanoma
HCT-15 colon = test system: HCT-15 colon
NCI-H23 lung = test system: NCI-H23 lung
M14 melanoma = test system: M14 melanoma
RPMI-8226 leukemia = test system: RPMI-8226 leukemia
K-562 leukemia = test system: K-562 leukemia
SF-268 CNS = test system: SF-268 CNS
SNB-19 CNS = test system: SNB-19 CNS
MOLT-4 leukemia = test system: MOLT-4 leukemia
EKVX NSCLC = test system: EKVX NSCLC
ACHN renal = test system: ACHN renal
SN12C renal = test system: SN12C renal
NCI-H226 lung = test system: NCI-H226 lung
HCT-116 colon = test system: HCT-116 colon
RXF 393 renal = test system: RXF 393 renal
DMS 273 small cell lung = test system: DMS 273 small cell lung
LOX IMVI melanoma = test system: LOX IMVI melanoma
HL-60(TB) leukemia = test system: HL-60(TB) leukemia
SR leukemia = test system: SR leukemia
SF-539 CNS = test system: SF-539 CNS

COc1ccc(CC(=O)c2cc(OC)c(OC)cc2C)cc1OC
TGI (SK-MEL-28 melanoma): > 100 µM | TGI (OVCAR-3 ovarian): > 100 µM | TGI (KM12 colon): > 100 µM | TGI (HCC-2998 colon): > 100 µM | TGI (OVCAR-8 ovarian): > 100 µM | TGI (DMS 114 small cell lung): > 100 µM | TGI (COLO 205 colon): > 100 µM | TGI (LXFL 529 NSCLC): > 100 µM | TGI (SF-295 CNS): > 100 µM | TGI (TK-10 renal): > 100 µM | TGI (UACC-257 melanoma): 75.8 µM | TGI (HOP-62 NSCLC): > 100 µM | TGI (UO-31 renal): > 100 µM | TGI (UACC-62 melanoma): > 100 µM | TGI (CAKI-1 renal): > 100 µM | TGI (NCI-H522 lung): > 100 µM | TGI (MALME-3M melanoma): > 100 µM | TGI (SNB-75 CNS): > 100 µM | TGI (OVCAR-4 ovarian): > 100 µM | TGI (A498 renal): > 100 µM | TGI (DLD-1 colon): > 100 µM | TGI (A549 NSCLC): > 100 µM | TGI (786-0 renal): > 100 µM | TGI (SNB-78 CNS): > 100 µM | TGI (IGROV1 ovarian): > 100 µM | TGI (OVCAR-5 ovarian): > 100 µM | TGI (M19-MEL melanoma): > 100 µM | TGI (CCRF-CEM leukemia): > 100 µM | TGI (SW-620 colon): > 100 µM | TGI (KM20L2 colon): > 100 µM | TGI (SK-MEL-2 melanoma): > 100 µM | TGI (NCI-H460 lung): > 100 µM | TGI (U251 CNS): > 100 µM | TGI (XF 498 CNS): > 100 µM | TGI (HT29 colon): > 100 µM | TGI (SK-OV-3 ovarian): > 100 µM | TGI (SK-MEL-5 melanoma): > 100 µM | TGI (HCT-15 colon): > 100 µM | TGI (NCI-H23 lung): > 100 µM | TGI (M14 melanoma): > 100 µM | TGI (RPMI-8226 leukemia): > 100 µM | TGI (K-562 leukemia): > 100 µM | TGI (SF-268 CNS): > 100 µM | TGI (SNB-19 CNS): > 100 µM | TGI (MOLT-4 leukemia): > 100 µM | TGI (EKVX NSCLC): > 100 µM | TGI (ACHN renal): > 100 µM | TGI (SN12C renal): > 100 µM

Cc1ccc(-c2cc(-c3ccco3)nc(N)n2)o1
TGI (SK-MEL-28 melanoma): > 100 µM | TGI (OVCAR-3 ovarian): > 100 µM | TGI (KM12 colon): > 100 µM | TGI (OVCAR-8 ovarian): > 100 µM | TGI (COLO 205 colon): > 100 µM | TGI (NCI-H226 lung): > 100 µM | TGI (LXFL 529 NSCLC): > 100 µM | TGI (SF-295 CNS): > 100 µM | TGI (TK-10 renal): > 100 µM | TGI (HOP-62 NSCLC): > 100 µM | TGI (UO-31 renal): > 100 µM | TGI (UACC-62 melanoma): > 100 µM | TGI (NCI-H522 lung): > 100 µM | TGI (MALME-3M melanoma): > 100 µM | TGI (SNB-75 CNS): > 100 µM | TGI (OVCAR-4 ovarian): > 100 µM | TGI (A549 NSCLC): > 100 µM | TGI (HCT-116 colon): > 100 µM | TGI (RXF 393 renal): > 100 µM | TGI (786-0 renal): > 100 µM | TGI (SNB-78 CNS): > 100 µM | TGI (IGROV1 ovarian): > 100 µM | TGI (OVCAR-5 ovarian): > 100 µM | TGI (CCRF-CEM leukemia): > 100 µM | TGI (SW-620 colon): > 100 µM | TGI (DMS 273 small cell lung): > 100 µM | TGI (KM20L2 colon): > 100 µM | TGI (SK-MEL-2 melanoma): > 100 µM | TGI (NCI-H460 lung): > 100 µM | TGI (LOX IMVI melanoma): > 100 µM | TGI (XF 498 CNS): > 100 µM | TGI (HT29 colon): > 100 µM | TGI (SK-MEL-5 melanoma): > 100 µM | TGI (HCT-15 colon): > 100 µM | TGI (NCI-H23 lung): > 100 µM | TGI (HL-60(TB) leukemia): > 100 µM | TGI (M14 melanoma): > 100 µM | TGI (SR leukemia): > 100 µM | TGI (RPMI-8226 leukemia): > 100 µM | TGI (K-562 leukemia): > 100 µM | TGI (SF-268 CNS): > 100 µM | TGI (SNB-19 CNS): > 100 µM | TGI (MOLT-4 leukemia): > 100 µM | TGI (SF-539 CNS): > 100 µM | TGI (EKVX NSCLC): > 100 µM | TGI (ACHN renal): > 100 µM | TGI (SN12C renal): > 100 µM
